We go through two compounds from PMC7646544, “Scaffold hopping and optimisation of 3’,4’-dihydroxyphenyl- containing thienopyrimidinones: synthesis of quinazolinone derivatives as novel allosteric inhibitors of HIV-1 reverse transcriptase-associated ribonuclease H” (Journal of Enzyme Inhibition and Medicinal Chemistry, 2020).

Where two headings read alike, the source gives them in different places.

Test [1] has as its target T1, HIV-1 IN in the presence of LEDGF/p75 (Human immunodeficiency virus type 1 group M subtype B, UniProt P04585).
T1 construct: made in house
The experiment in a line: HTRF IN LEDGF/p75-dependent assay. The class given is biochemical. The method, then:
The IN LEDGF/p75-dependent assay measures inhibition of IN activity in the presence of LEDGF/p75 protein[35–37]. Briefly, 50 nM IN was pre-incubated with increasing concentration of compounds for 1 h at room temperature in reaction buffer containing 20 mM HEPES pH 7.5, 1 mM DTT, 1% Glycerol, 20 mM MgCl2, 0.05% Brij-35 and 0.1 mg/ml BSA. To this mixture, 9 nM DNA donor substrate (5′-[…]-Biotin-3′ annealed with 5′-[…]-Biotin3’) and 50 nM DNA acceptor substrate (5′-Cy5-[…]-3′ annealed with 5′-Cy5- […]-3′) and 50 nM LEDGF/p75 were added and incubated at 37 °C for 90 min.

The target of another test is T2, HIV-1 RT-associated RDDP (Human immunodeficiency virus type 1 group M subtype B, UniProt P04585).
T2 construct: dynamics at the p66/p51 HIV-1 RT-RNase H dimer interface; made in house
Description: HIV-1 RNA-dependent DNA polymerase activity determination. The format is biochemical. The conditions noted are these: wt RT, poly(A)-oligo(dT). The method, then: HIV-1 RT-associated RDDP activity was measured as described[17]^,[38]. Briefly, in 25 μL volume containing 60 mM Tris-HCl pH 8.1, 8 mM MgCl2, 60 mM KCl, 13 mM DTT, poly(A)-oligo(dT), 100 μM dTTP, and 6 ng wt RT. After enzyme addition, the reaction mixture was incubated for 30 min at 37 °C and stopped by addition of EDTA. […] All assays were performed in triplicate.

For test [2], the target named is T3, wt HIV-1 RT-associated RNase H (Human immunodeficiency virus type 1 group M subtype B, UniProt P04585).
T3 construct: dynamics at the p66/p51 HIV-1 RT-RNase H dimer interface; made in house
The conditions noted are these: wild type RT, cited from earlier work.

Test [3] addresses p66/p51C280A mutant HIV-1 RNase H (Human immunodeficiency virus type 1 group M subtype B, UniProt P04585, C867A). The arrangement: made in house; method as in PMID 24261890. The conditions noted are these: p66/p51 C280A mutant RT; cited from earlier work.
The target of test [4] is T3, wt HIV-1 RT-associated RNase H. The experiment in a line: RNase H inhibitor analysis, wild type RT (fluorescent RNA/DNA hybrid). The class given is biochemical. The following applies: compared with decorated quinazolinone 2. The method, then:
All assays were performed in triplicate.

Turning to `Cc1ccc2nc(-c3ccc(O)c(O)c3)[nH]c(=O)c2c1` [Compound 2, 2–(3,4-dihydroxyphenyl)-6-methylquinazolin-4(3H)-one], the IC50 in test [1] is 4.3 ± 1.5 µM; on HIV-1 RT-associated RDDP it was > 100 µM; in test [2] (read-out: IC50 WT RNase H) it was 0.41 ± 0.01 µM; in test [3] it was 0.37 ± 0.01 µM.
In the case of `O=c1[nH]c(-c2ccc(O)c(O)c2)nc2ccccc12` [Compound 17, 2–(3,4-dihydroxyphenyl)quinazolin-4(3H)-one], the results for the IC50 (in test [1]; on HIV-1 RT-associated RDDP; in test [2] (read-out: IC50 (µM) WT RNase H)) were 1.44 ± 0.4 µM, 70 ± 1 µM and 3.46 ± 0.47 µM, respectively. Moreover, in test [4], the “fold less potent HIV-1 RNase H inhibitor” value turned out to be 8 fold.
